Experimental data taken from article PMC12787074, “Involvement of Multiple Ion Channels and Receptors in Mediating the Insecticidal and Repellent Actions of Limonene” (International Journal of Molecular Sciences, 2025).
Blank lines part the entries; values can stand above or below the compound they belong to.

Assays:
Assay type in all cases: cell-based
[1] = target: T1, AaegRdl1-1 (Rdl, resistance to dieldrin GABA receptor) (Aedes aegypti, UniProt Q16896); assay: two-electrode voltage clamp in Xenopus oocytes; agonist-evoked chloride current
T1 construct: AaegRdl1-1 clone expressed in Xenopus oocytes
T1 sequence (Q16896 entry or part of it): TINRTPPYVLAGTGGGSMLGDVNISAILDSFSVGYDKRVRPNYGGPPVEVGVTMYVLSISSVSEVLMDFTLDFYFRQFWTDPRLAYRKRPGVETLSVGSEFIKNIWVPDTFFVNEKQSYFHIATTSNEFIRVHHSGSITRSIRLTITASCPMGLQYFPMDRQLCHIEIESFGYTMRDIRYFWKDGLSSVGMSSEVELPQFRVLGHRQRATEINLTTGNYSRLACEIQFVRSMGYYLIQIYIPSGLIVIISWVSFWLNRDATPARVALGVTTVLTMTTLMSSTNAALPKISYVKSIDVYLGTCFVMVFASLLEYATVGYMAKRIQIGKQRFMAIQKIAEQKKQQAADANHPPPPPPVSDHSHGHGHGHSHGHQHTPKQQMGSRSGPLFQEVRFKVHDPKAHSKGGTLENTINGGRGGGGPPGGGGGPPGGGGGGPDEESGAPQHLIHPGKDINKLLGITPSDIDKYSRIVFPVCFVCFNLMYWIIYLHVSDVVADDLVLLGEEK

[2] = target: T1, AaegRdl1-1 (Rdl, resistance to dieldrin GABA receptor); assay: two-electrode voltage clamp in Xenopus oocytes; block of GABA current
[3] = target: T1, AaegRdl1-1 (Rdl, resistance to dieldrin GABA receptor); assay: two-electrode voltage clamp in Xenopus oocytes; potentiation of […] GABA current

- EC50 [1]: 204 ± 18.3 µM
SMILES: NCCCC(=O)O [GABA]

SMILES: N#Cc1nn(-c2c(Cl)cc(C(F)(F)F)cc2Cl)c(N)c1[S+]([O-])C(F)(F)F (stereo not drawn) [fipronil]
- two-electrode voltage clamp in Xenopus oocytes; block of GABA current [2]: IGABA was blocked by the application of a positive control, fipronil, as expected (Supplementary Figure S2)

- EC50 [3]: 43.3 ± 4.6 µM
SMILES: C=C(C)[C@H]1CC=C(C)CC1 [limonene]
